Measurements from article PMC10044120, “Potent and selective covalent inhibition of the papain-like protease from SARS-CoV-2” (Nature Communications, 2023).
Several values for one entry are separate records, joined by “and”; a condition that tells them apart may be missing. Equal entries are not always repeated. Where two headings read alike, the source gives them in different places.

Legend:
PLpro = PLpro (Severe acute respiratory syndrome coronavirus 2, UniProt P0DTD1); experiment: Intact protein ESI-MS to assess covalent adduct formation; format: binding, SARS-CoV-2; design: unit not given here
[1] = Metabolic stability in rat liver microsomes; conditions: Sprague-Dawley
[2] = system: SARS-CoV-2 isolate USA-WA1/2020; conditions: for inhibition: read-out: cytopathic effect, % cell viability, duplicate wells
SARS-CoV-2 PLpro [3] = target: T1, SARS-CoV-2 PLpro (Severe acute respiratory syndrome coronavirus 2, UniProt P0DTD1); experiment: biochemical; conditions: PLpro 50 nM, Ub-rhodamine110
USP4 = target: T2, USP4 (Homo sapiens, UniProt Q13107); experiment: DUB selectivity assay, USP4 (Ub-rhodamine110); format: biochemical
T2 construct: purchased LifeSensors, Inc. (Malvern, PA)
T2 sequence (Q13107 1-963): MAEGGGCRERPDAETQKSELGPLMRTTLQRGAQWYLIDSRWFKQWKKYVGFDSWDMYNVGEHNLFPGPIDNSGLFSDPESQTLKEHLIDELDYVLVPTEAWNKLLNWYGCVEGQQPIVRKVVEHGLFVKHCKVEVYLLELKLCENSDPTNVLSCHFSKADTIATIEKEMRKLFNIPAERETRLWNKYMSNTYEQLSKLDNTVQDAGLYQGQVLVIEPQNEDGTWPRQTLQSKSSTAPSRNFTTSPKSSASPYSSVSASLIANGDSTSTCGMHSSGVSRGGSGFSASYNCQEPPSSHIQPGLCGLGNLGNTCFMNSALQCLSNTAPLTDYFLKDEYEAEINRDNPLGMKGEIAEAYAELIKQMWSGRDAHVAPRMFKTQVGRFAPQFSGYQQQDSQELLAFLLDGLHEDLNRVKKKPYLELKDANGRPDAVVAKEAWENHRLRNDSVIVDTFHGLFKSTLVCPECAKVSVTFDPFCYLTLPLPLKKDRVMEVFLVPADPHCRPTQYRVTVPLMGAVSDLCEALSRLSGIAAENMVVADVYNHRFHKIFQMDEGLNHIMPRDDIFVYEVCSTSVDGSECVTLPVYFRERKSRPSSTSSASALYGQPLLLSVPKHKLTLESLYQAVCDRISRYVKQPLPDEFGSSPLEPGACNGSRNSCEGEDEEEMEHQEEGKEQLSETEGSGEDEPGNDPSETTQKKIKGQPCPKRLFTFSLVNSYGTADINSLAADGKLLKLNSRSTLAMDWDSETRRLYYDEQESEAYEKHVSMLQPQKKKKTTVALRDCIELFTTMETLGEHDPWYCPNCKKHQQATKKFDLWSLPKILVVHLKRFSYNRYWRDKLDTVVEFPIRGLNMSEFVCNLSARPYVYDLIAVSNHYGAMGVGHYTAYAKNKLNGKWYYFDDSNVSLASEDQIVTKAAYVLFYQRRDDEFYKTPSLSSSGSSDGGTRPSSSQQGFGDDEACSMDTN

[4] = Metabolic stability in human liver microsomes
UCHL1 = target: T3, UCHL1 (Homo sapiens, UniProt P09936); experiment: biochemical; conditions: UCHL1 10 nM, Ub-rhodamine110
T3 construct: purchased LifeSensors, Inc. (Malvern, PA)

PLpro from SARS-CoV-2 [5] = target: T4, PLpro from SARS-CoV-2 (Severe acute respiratory syndrome coronavirus 2, UniProt P0DTD1); experiment: biochemical; format: biochemical; conditions: 0.5 h
SARS-CoV-2 PLpro [6] = target: T1, SARS-CoV-2 PLpro; experiment: biochemical; conditions: PLpro 10 nM, ISG15-CHOP2
[7] = system: SARS-CoV-2 isolate USA-WA1/2020; experiment: microbe, parasite or virus in culture
[8] = Metabolic stability in human liver S9 fraction
PLpro from SARS-CoV-2 [9] = target: T4, PLpro from SARS-CoV-2; experiment: biochemical; format: biochemical; design: mean (kobs plot, Supplementary Figure 6 II): unit: min^-1
USP30 = target: T5, USP30 (Homo sapiens, UniProt Q70CQ3); experiment: biochemical; conditions: USP30 10 nM, Ub-rhodamine110
T5 construct: purchased LifeSensors, Inc. (Malvern, PA)

USP7 = target: T6, USP7 (Homo sapiens, UniProt Q93009); experiment: biochemical; conditions: USP7 5 nM, Ub-CHOP2
T6 construct: purchased LifeSensors, Inc. (Malvern, PA)
T6 sequence (Q93009 whole entry): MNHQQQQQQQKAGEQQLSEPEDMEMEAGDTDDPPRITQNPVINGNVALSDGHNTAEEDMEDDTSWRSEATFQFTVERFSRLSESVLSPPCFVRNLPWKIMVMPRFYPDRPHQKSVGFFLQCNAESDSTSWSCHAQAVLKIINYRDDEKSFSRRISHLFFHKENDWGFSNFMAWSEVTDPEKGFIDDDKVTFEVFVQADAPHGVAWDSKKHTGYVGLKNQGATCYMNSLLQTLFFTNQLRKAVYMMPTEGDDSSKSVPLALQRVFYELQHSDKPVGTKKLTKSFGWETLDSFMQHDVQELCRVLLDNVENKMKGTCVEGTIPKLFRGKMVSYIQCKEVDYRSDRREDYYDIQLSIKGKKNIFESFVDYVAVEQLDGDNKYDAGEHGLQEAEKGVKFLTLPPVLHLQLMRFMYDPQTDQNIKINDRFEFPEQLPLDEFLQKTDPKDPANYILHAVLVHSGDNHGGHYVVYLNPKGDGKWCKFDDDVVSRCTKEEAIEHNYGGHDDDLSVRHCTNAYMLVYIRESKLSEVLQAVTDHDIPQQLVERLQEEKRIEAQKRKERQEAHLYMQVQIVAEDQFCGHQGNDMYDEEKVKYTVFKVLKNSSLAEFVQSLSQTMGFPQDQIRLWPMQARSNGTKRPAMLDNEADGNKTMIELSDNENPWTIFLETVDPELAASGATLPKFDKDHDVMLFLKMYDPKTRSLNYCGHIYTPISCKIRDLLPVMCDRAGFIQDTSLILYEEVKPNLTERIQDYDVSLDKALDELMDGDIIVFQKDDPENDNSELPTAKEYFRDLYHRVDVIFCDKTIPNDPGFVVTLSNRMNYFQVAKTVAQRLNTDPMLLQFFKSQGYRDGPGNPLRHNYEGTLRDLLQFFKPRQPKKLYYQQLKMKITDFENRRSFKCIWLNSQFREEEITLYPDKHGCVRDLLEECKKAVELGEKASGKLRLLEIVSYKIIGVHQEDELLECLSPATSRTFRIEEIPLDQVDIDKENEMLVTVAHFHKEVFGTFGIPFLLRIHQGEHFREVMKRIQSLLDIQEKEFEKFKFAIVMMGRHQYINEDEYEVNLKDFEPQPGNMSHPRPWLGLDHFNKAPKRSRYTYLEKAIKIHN

T3 sequence (P09936 whole entry): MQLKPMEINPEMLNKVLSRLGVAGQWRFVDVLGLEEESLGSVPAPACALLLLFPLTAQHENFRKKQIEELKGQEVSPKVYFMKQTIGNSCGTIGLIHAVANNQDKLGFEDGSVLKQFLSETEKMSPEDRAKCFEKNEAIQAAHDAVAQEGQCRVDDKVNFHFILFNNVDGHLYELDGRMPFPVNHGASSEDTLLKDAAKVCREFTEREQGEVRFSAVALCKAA
T5 sequence (Q70CQ3 whole entry): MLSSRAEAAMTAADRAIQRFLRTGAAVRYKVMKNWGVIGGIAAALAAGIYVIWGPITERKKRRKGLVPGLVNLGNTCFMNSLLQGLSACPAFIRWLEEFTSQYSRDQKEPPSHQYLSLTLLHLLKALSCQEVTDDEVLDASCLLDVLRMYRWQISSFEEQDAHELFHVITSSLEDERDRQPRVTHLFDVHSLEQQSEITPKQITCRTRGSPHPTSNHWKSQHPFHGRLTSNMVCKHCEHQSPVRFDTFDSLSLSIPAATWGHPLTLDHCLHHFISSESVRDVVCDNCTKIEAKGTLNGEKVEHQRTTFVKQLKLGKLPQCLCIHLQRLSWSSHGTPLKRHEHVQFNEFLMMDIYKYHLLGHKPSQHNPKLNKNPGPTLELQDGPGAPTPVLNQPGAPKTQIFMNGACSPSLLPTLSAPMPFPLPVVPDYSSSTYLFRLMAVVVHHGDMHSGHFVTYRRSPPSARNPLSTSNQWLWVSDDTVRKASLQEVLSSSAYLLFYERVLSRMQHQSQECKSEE

Work on `COC(=O)/C=C/C(=O)NNC(=O)CCc1ccccc1C(=O)N[C@H](C)c1cccc2ccccc12` [Compound 7, methyl(R,E)-4-(2-(3-(2-((1-(naphthalen-1 yl)ethyl)carbamoyl)phenyl)propanoyl)hydrazineyl)-4-oxobut-2-enoate] yielded a Measured adduct mass (PLpro) of 474, a half-life [1] of 46 min and a microsomal CLint [1] of 151 µL/min/mg. For the same compound, the “% cell viability, cytopathic effect” value ([2]; 2.08 uM) was 64.9953%, the “% cell viability, cytopathic effect” value ([2]; 8.33 uM) was 95.2833% and 73.4931% and the “% cell viability, cytopathic effect” value ([2]; 16.65 uM) was 97.0077%. The inhibition ([2]; [inhibitor] 2.08 uM, 2.08 µM) was 65%, the inhibition ([2]; [inhibitor] 8.33 uM, 8.33 µM) was 95.3% and 73.5% and the inhibition ([2]; [inhibitor] 16.65 uM, 16.65 µM) was 97%. The Hill slope (SARS-CoV-2 PLpro [3]) was 1.06, the IC50 (USP4) was over 30 µM and the half-life [4] was 50 min. It also gave a microsomal CLint [4] of 139 µL/min/mg, an IC50 (UCHL1) of over 30 µM and a remaining activity at 0.06 µM (PLpro from SARS-CoV-2 [5]; 0.06 uM inhibitor) of 66.6%. The remaining activity at 0.2 µM (PLpro from SARS-CoV-2 [5]; 0.20 uM inhibitor) was 17.4%, the remaining activity at 20.03 µM (PLpro from SARS-CoV-2 [5]; 20.03 uM inhibitor) was 2.85% and the remaining activity at 200 µM (PLpro from SARS-CoV-2 [5]; 200.00 uM inhibitor, 30-min preincubation) was 4.35%. It also gave a remaining activity at 0.06 µM (PLpro from SARS-CoV-2 [5]; inhibitor 0.06 uM) of 66.6%, a remaining activity at 0.2 µM (PLpro from SARS-CoV-2 [5]; inhibitor 0.20 uM) of 17.4% and a remaining activity at 20 µM (PLpro from SARS-CoV-2 [5]; inhibitor 20.00 uM) of 2.85%. For the same compound, the remaining activity at 200 µM (PLpro from SARS-CoV-2 [5]; inhibitor 200.00 uM) was 4.35%, the Hill slope (SARS-CoV-2 PLpro [6]) was 1.34 and the viability at […] ([7]; Severe acute respiratory syndrome coronavirus 2, Vero C1008, read-out: % cell viability, cytopathic effect) was 79.3% and 52.3%. The viability at 2.08 µM ([7]; Severe acute respiratory syndrome coronavirus 2, Vero C1008, read-out: % cell viability, cytopathic effect, 2.08 uM) was 80.5%, the viability at 16.65 µM ([7]; Severe acute respiratory syndrome coronavirus 2, Vero C1008, read-out: % cell viability, cytopathic effect, 16.65 uM) was 88.8% and the inhibition at […] ([7]; Severe acute respiratory syndrome coronavirus 2, Vero C1008, read-out: cytopathic effect, % cell viability) was 79.3% and 52.3%. The inhibition at 2.08 µM ([7]; Severe acute respiratory syndrome coronavirus 2, Vero C1008, read-out: cytopathic effect, % cell viability, [inhibitor] 2.08 uM, duplicate wells) was 80.5%, the inhibition at 16.65 µM ([7]; Severe acute respiratory syndrome coronavirus 2, Vero C1008, read-out: cytopathic effect, % cell viability, [inhibitor] 16.65 uM, duplicate wells) was 88.8% and the half-life [8] was 60 min. For the same compound, the microsomal CLint [8] was 38.9 µL/min/mg, the “Kobs, mean” value (PLpro from SARS-CoV-2 [9]; 0.10 uM) was 0.00424 min⁻¹ and the “Kobs, mean” value (PLpro from SARS-CoV-2 [9]; 0.20 uM) was 0.03867 min⁻¹. The “Kobs, mean” value (PLpro from SARS-CoV-2 [9]; 0.30 uM) was 0.09135 min⁻¹, the remaining activity at 0.1 µM (PLpro from SARS-CoV-2 [9]; 5 min, read-out: PLpro activity after preincubation, inhibitor 0.1 uM, preincubation 5 min) was 95.7% and the remaining activity at 0.2 µM (PLpro from SARS-CoV-2 [9]; 5 min, read-out: PLpro activity after preincubation, inhibitor 0.2 uM, preincubation 5 min) was 105%. For the same compound, the remaining activity at 0.3 µM (PLpro from SARS-CoV-2 [9]; 10 min, read-out: PLpro activity after preincubation, inhibitor 0.3 uM, preincubation 10 min) was 30.7%, the remaining activity at 0.3 µM (PLpro from SARS-CoV-2 [9]; 0.5 h, read-out: PLpro activity after preincubation, inhibitor 0.3 uM, preincubation 30 min) was 17.7% and the remaining activity at 0.1 µM (PLpro from SARS-CoV-2 [9]; 1 h, read-out: PLpro activity after preincubation, inhibitor 0.1 uM, preincubation 60 min) was 74.1%. It also gave a remaining activity at 0.2 µM (PLpro from SARS-CoV-2 [9]; 1 h, read-out: PLpro activity after preincubation, inhibitor 0.2 uM, preincubation 60 min) of 2.6%, a remaining activity at 0.1 µM (PLpro from SARS-CoV-2 [9]; […], read-out: PLpro activity after preincubation, inhibitor 0.1 uM, preincubation 15 min) of 104% and a remaining activity at 0.1 µM (PLpro from SARS-CoV-2 [9]; […], read-out: PLpro activity after preincubation, inhibitor 0.1 uM, preincubation 45 min) of 75.3%. It also gave a remaining activity at 0.2 µM (PLpro from SARS-CoV-2 [9]; […], read-out: PLpro activity after preincubation, inhibitor 0.2 uM, preincubation 15 min) of 59.4%, a remaining activity at 0.2 µM (PLpro from SARS-CoV-2 [9]; […], read-out: PLpro activity after preincubation, inhibitor 0.2 uM, preincubation 90 min) of 0.514% and a remaining activity at 0.3 µM (PLpro from SARS-CoV-2 [9]; […], read-out: PLpro activity after preincubation, inhibitor 0.3 uM, preincubation 15 min) of 26.7%. The “Time dep. (time-dependent inhibition)” value (PLpro from SARS-CoV-2 [9]; fluorogenic peptide assay, varied preincubation time) was “Yes”, the “mean (kobs plot, Supplementary Figure 6 II)” value (PLpro from SARS-CoV-2 [9]; inhibitor 0.10 uM) was 0.00424 and the “mean (kobs plot, Supplementary Figure 6 II)” value (PLpro from SARS-CoV-2 [9]; inhibitor 0.20 uM) was 0.03867. For the same compound, the “mean (kobs plot, Supplementary Figure 6 II)” value (PLpro from SARS-CoV-2 [9]; inhibitor 0.30 uM) was 0.09135, the IC50 (USP30) was over 30 µM and the IC50 (USP7) was over 30 µM.
